Data on eight molecules can be found in ChEMBL document CHEMBL2021825, “Dimerization of β-tryptase inhibitors, does it work for both basic and neutral P1 groups?” (Bioorg Med Chem Lett, 2012).

The term Ki denotes a measure of affinity in units of concentration, obtained from inhibition or displacement.

Assay [1] can be described thus: Inhibition of human recombinant beta-tryptase using chromogenic substrate S-2366.
Assay [2] concerns Tryptase beta-1 (Homo sapiens), Q15661 [A190S]. Nature of the assay: Inhibition of human recombinant beta-tryptase A190S mutant using chromogenic substrate S-2366.
The species entered for the next assay is Homo sapiens. The experiment in a line: Inhibition of human recombinant beta-tryptase using chromogenic substrate S-2366 at 30 uM.

Molecules are shown by their SMILES. Activity calls are given as the source filed them. The calls are words filed in the database; no cut-off is given here.

Sequence of Tryptase beta-1 (Homo sapiens), Q15661 [A190S] (Q15661 whole entry A190S): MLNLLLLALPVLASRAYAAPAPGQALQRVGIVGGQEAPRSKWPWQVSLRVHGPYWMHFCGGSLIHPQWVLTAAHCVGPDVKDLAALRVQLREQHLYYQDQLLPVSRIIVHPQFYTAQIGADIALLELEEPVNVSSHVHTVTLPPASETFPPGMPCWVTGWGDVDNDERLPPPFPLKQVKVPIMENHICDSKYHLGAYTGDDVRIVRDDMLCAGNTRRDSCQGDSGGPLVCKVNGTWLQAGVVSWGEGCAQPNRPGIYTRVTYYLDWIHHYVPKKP

Turning to `NCc1cccc(C2CCN(C(=O)c3cccc(CCCCc4cccc(C(=O)N5CCC(c6cccc(CN)c6)CC5)c4)c3)CC2)c1`, in assay [1], the inhibition constant (Ki) was found to be 2 nM. Same read-out and setting: to `N=C(N)c1cccc(C2CCN(C(=O)c3cccc(CCCCc4cccc(C(=O)N5CCC(c6cccc(C(=N)N)c6)CC5)c4)c3)CC2)c1` belongs 0.3 nM; to `NCc1cccc(C2CCN(C(=O)c3cccc(C#CC#Cc4cccc(C(=O)N5CCC(c6cccc(CN)c6)CC5)c4)c3)CC2)c1`, 0.34 nM. As to `NCc1cccc(C2CCN(C(=O)c3cccc(-c4ccc5c(c4)NC(c4c[nH]c6cc(-c7cccc(C(=O)N8CCC(c9cccc(CN)c9)CC8)c7)ccc46)C5)c3)CC2)c1` (stereo not drawn), the Ki in assay [1] is 3 nM.

Take `Nc1ncnc2cc(CN3CCN(Cc4cc(-c5ccc(Cl)s5)on4)CC3=O)ccc12`: the inhibition result in assay [2] is “inactive”.

Turning to `N=C(N)c1cccc(C2CCN(C(=O)c3cccc(C#CC#Cc4cccc(C(=O)N5CCC(c6cccc(C(=N)N)c6)CC5)c4)c3)CC2)c1`, the Ki in assay [1] was 0.29 nM. Regarding `O=C1CN(Cc2cc(-c3ccc(Cl)s3)on2)CCN1CCCCCCCCCCN1CCN(Cc2cc(-c3ccc(Cl)s3)on2)CC1=O`, the inhibition entry in the assay filed under Homo sapiens was “inactive”. As for `NCc1cccc(C2CCN(C(=O)c3ccccc3)CC2)c1`, the Ki in assay [1] is 1900 nM.
